According to US20240271100A1, “IN VITRO DIFFERENTIATION OF PANCREATIC ENDOCRINE CELLS” (VERTEX PHARMACEUTICALS INCORPORATED, priority 2020, published 2024):

Legend:
[1] = molecular target: EZH2 (Homo sapiens, UniProt Q15910); conditions: cited from earlier work
[2] = test system: primitive gut tube cells; experiment: FGF2 applied during S3 of the Version A differentiation protocol; flow cytometry of the resulting endocrine cell population; type: cell-based, human
Method: An exemplary differentiation protocol, Version A, according to the present disclosure and its modified version, which added use of FGF2 at Stage 3, were tested for differentiating human stem cells into mature β cells capable of releasing insulin in response to glucose challenge in vitro.
(§1) For initial steps, basically, human pluripotent stem cell line SEM01 was thawed from a 3D suspension bank and seeded at a density of 1M cells/ml into 500 ml spinner flasks (Corning; 89,089-814) with 300 ml Nutristem media (Biological Industries 05-100-1A) supplemented with […] Y27632 (ab120129) and 100 ng/ml FGF2 (Peprotech RUO: 100-18B-1MG). Spinner flasks were placed on a magnetic stir plate (Chemglass) rotating at 60 r.p.m. in a humidified 37 C incubator set at 5% CO2. Cells were passaged every 72 hours. After 3 passages, cells were seeded at 0.5M cells/ml density and fed every 24 hours until 72 hours. Then, differentiation was initiated in spinner flasks using the Version A differentiation protocol which begins on day 1 of Stage 1 (S1, day 1). FGF2 was added to Stage 3, Stage 4, or Stage 5 as detailed below in the modified protocol.
(§2) Version A protocol is a 6-stage stepwise protocol. With Version A protocol, stem cells were treated with reagents in the following consecutive orders during the six stages: Stage 1 (S1), Activin-A for 3 days and also CHIR99021 for the first 24 hr; Stage 2 (S2), KGF for 3 days; Stage 3 (S3), KGF, PDBU, Sant-1, retinoic acid (RA), Activin A, and Thiazovivin for 2 days, and also DMH-1 for the first day; Stage 4 (S4), KGF, Sant-1, Thiazovivin, Activin A, and RA for 6 days; Stage 5 (S5), XXI, Alk5i, GC-1, LDN-193189, Thiazovivin, Staurosporine, and DZNEP for 7 days, and also RA, Sant-1, and Betacellulin for the first 2 days.
In one experiment, on protocol day 7 (S3, day 1; S3dl), 10 mL of cell clusters were taken from the spinner flask and aliquoted into 2 wells of ultra-low attachment 6-well plates (Corning 29443) (5 mL/well). The plate was placed on an orbital shaker set to 130 rpm in the incubator. Cells received either control Version A conditions as described above or were supplemented with FGF2 (100 ng/ml) on protocol day 7 and day 8 only (S3d1 and S3d2).
(§3) Upon completion of Stage 5, on Stage 6 day 1 (S6dl), the cells were collected, dispersed, and analyzed by flow cytometry. Briefly, islets were dispersed with TrypLE Express (Life Technologies; 12,604,013) at 37 C, fixed with 4% PFA for 20 mins at 4 C, blocked by 1 hour in FACS buffer (5% Donkey Serum and 0.1% Saponin in PBS) at room temperature, stained with NKX6.1 (DSHB FSSA12 1:100) and ISL1 (ab178400 1:500) antibodies diluted in FACS buffer overnight at 4 C. The next day, cells were washed twice with FACS buffer, stained with secondary antibody: anti-Rabbit AlexaFluor-488 (A31573 1:1000) and anti-Mouse Alexa Fluro-647 (A31571 1:1000) diluted in FACS buffer, and washed twice with FACS buffer. Stained cells were measured using an Accuri 6 flow cytometer (BD Biosciences) and analyzed using Accuri software.

[3] = test system: PDX1-positive pancreatic progenitor cells; experiment: FGF2 applied during S4 of the Version A differentiation protocol; flow cytometry of the resulting endocrine cell population; type: cell-based, human
Method: as §1, §2, §3
In one experiment, Version A protocol, as described in Example 1, was compared with a modified protocol in which 100 ng/mL FGF2 was added on day 1, 3, and 5 of S4 to the culture medium. As described above, on S6dl, the cells were collected, dispersed, and analyzed by flow cytometry.

[4] = test system: PDX1-positive, NKX6.1-positive pancreatic progenitor cells; experiment: FGF2 applied at S5 day 1 and day 2 of the Version A differentiation protocol; flow cytometry on S6d1; type: cell-based, human; conditions: FGF2 100 ng/mL at S5 day 1 and day 2; FIGS. 8A-8B
Method: as §1, §2
Upon completion of Stage 5, on Stage 6 day 1 (S6dl), the cells were collected, dispersed, and analyzed by flow cytometry. […] Stained cells were measured using an Accuri 6 flow cytometer (BD Biosciences) and analyzed using Accuri software.
In one experiment, Version A protocol, as described in Example 1, was compared with a modified protocol in which 100 ng/mL FGF2 was added on protocol day 15 and day 16 (Stage 5 day 1 and day 2). As described above, on S6dl, the cells were collected, dispersed, and analyzed by flow cytometry.

[5] = test system: Stage 6 cells (NKX6.1-positive, ISL1-positive endocrine cells); experiment: FGF2 applied at S6 of the Version A or Version B differentiation protocol; cell composition by flow cytometry; type: cell-based, human
Method: In one experiment, the effect of FGF2 treatment at S6 was examined by comparing Stage 6 cells generated with Version A protocol, as described in Example 1, or with Version A protocol plus FGF2 treatment (100 ng/mL) at S6 for the first 3 days.
In another experiment, the effect of FGF2 treatment at S6 was examined by comparing S6 cells generated under four differentiation conditions: Version A protocol; Version A protocol + FGF2 treatment (100 ng/mL for the first 12 days) at S6; Version B protocol; Version B protocol+ FGF2 treatment at S6. Version B protocol shares similar reagents and treatment timing with […], in Version B protocol, one difference from Version A protocols is that the cells were supplemented with 500 nM PDBU from day 5 of Stage 4 (S4d5) to day 2 of […] (S5d2). […]

[6] = FGF2 treatment at S3, by the end of S5, FIGS. 8A-8B
[7] = FGF2 100 ng/mL at S4 versus Version A without FGF2, FIG. 2B
[8] = FGF2 treatment at S4, FIGS. 8A-8B
[9] = FGF2 treatment at S6, summary FIG. 8A
[10] = Version B protocol, FGF2 at S6, by S6d8 and S6d12, FIGS. 5A-C

EZH2, sequence (Q15910 whole entry, species assumed): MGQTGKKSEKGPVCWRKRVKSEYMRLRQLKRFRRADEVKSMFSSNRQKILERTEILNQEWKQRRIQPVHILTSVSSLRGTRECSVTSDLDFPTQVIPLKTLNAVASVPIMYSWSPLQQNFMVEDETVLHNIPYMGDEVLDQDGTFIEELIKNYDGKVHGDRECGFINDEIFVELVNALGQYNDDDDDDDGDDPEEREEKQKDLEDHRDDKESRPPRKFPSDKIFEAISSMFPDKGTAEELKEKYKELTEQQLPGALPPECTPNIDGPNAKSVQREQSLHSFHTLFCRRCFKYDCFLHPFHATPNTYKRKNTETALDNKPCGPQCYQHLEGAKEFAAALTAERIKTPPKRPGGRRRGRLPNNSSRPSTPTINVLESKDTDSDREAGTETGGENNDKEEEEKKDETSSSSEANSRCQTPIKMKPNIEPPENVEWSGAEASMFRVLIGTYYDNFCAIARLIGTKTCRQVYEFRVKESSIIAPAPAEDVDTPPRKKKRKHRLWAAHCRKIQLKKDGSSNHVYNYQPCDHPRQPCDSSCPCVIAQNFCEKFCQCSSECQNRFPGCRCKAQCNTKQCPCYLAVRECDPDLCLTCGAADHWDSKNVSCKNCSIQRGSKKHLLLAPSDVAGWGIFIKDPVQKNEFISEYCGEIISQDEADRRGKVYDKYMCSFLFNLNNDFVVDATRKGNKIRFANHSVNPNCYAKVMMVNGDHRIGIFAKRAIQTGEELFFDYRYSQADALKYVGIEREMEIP
EZH2, sequence (O75530 whole entry partner, species assumed): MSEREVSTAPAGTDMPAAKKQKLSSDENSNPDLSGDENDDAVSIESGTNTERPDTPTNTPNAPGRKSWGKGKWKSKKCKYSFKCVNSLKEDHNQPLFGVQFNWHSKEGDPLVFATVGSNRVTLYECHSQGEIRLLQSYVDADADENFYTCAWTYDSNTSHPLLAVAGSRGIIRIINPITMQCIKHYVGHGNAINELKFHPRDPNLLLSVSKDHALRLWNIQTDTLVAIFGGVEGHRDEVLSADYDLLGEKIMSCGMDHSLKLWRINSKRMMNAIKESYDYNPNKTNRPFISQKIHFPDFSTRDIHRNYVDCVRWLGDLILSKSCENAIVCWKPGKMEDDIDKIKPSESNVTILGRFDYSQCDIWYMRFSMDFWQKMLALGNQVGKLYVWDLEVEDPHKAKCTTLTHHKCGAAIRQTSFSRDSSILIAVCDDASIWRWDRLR
EZH2, sequence (Q15022 whole entry partner, species assumed): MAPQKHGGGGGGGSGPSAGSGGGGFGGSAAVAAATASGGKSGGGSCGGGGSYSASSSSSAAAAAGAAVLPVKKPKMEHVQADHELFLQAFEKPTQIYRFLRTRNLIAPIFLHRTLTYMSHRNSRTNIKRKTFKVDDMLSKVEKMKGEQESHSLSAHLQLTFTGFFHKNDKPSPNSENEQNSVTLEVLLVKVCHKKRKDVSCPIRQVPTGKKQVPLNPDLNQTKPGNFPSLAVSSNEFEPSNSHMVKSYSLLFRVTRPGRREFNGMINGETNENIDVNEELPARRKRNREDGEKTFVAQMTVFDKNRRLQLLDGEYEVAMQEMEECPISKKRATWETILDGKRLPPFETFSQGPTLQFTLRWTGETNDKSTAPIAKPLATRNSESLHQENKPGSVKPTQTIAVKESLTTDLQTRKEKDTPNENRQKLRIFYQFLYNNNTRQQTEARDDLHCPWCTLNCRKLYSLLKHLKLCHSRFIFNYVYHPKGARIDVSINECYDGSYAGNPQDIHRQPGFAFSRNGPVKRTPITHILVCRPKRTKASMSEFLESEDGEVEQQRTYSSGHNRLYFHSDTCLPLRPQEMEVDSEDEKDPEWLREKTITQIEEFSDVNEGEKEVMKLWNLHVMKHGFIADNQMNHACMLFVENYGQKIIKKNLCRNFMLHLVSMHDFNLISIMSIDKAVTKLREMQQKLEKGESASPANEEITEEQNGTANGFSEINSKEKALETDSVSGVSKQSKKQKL

CCCc1cc(C)[nH]c(=O)c1CNC(=O)c1cc(-c2ccc(N3CCN(C(C)C)CC3)nc2)cc2c1cnn2C(C)C [UNC1999]
selectivity compared with GSK126 [1]: less selective

FGF2: growth factor from the FGF family; human FGF2 polypeptide sequence (GenBank Accession NP 001997); Peprotech RUO: 100-18B-1MG
percentage of SC-α cells that express ISL1, but do not express NKX6.1 ([2]; FGF2 100 ng/ml on S3d1 and S3d2, Version A, flow cytometry on S6d1, without FGF2 9.7%): 35.1%
percentage of SC-enterochromaffin cells (SC-EC) that express NKX6 but not ISL1.1 ([2]; FGF2 100 ng/ml on S3d1 and S3d2, Version A, flow cytometry on S6d1, without FGF2 31.7%): 13.1%
percentage of SC-β cells that express both NKX6.1 and ISL1 ([2]; FGF2 100 ng/ml on S3d1 and S3d2, Version A, flow cytometry on S6d1, without FGF2 49.3%): 36.6%
change in percentage of SC-EC cells [2, 6]: decreased
change in percentage of SC-β cells [2, 6]: decreased
change in percentage of SC-α cells ([2]; FGF2 treatment at S3, cells generated by the end of S5, FIGS. 8A-8B): increased
change in percentage of glucagon-positive, ARX-positive cells [3, 7]: increased
change in percentage of total ARX-positive cells [3, 7]: increased
increase of the percentage of somatostatin-positive SC-δ cells [3, 7]: about two
percentage of NKX6.1-negative, ISL1-positive SC-α cells ([3]; FGF2 100 ng/mL on day 1, 3 and 5 of S4, Version A, flow cytometry on S6d1, without FGF2 5.6%): 12.0%
percentage of NKX6.1-positive, ISL1-positive SC-β cells ([3]; FGF2 100 ng/mL on day 1, 3 and 5 of S4, Version A, flow cytometry on S6d1, without FGF2 around 43%): around 55%
change in percentage of SC-EC cells [3, 8]: decreased
change in percentage of SC-α cells [3, 8]: increase
change in percentage of SC-β cells [3, 8]: increase
change in percentage of SC-δ cells [3, 8]: increase
change in percentage of SOX9-positive cells [3, 8]: decreased
percentage of VMAT1-positive cells ([3]; FGF2 treatment at S4, without FGF2 about 60%, FIG. 3B): about 40%
percentage of SOX9-positive, NKX6.1-positive cells ([3]; FGF2 treatment at S4, without FGF2 around 12.5%): around 5%
percentage of total SOX9-positive cells ([3]; FGF2 treatment at S4, without FGF2 around 20%, FIG. 3A): around 14%
percentage of NKX6.1-positive, ISL1-negative cells ([3]; FGF2 treatment at S4, without FGF2 around 40%, FIG. 3B): around 20%
change in SC-EC cells [4]: decrease
change in SC-α cells [4]: increase
change in percentage of SC-β cells [4]: no significant change
change in percentage of Ki67-positive cells ([5]; FGF2 at S6, both Version A and Version B protocols): increased
percentage of non-proliferating SOX9-positive cells (SOX9-positive, Ki67-negative) ([5]; FGF2 at S6, by S6d12, both Version A and Version B protocols, without FGF2 15%-25%, FIG. 6A): about 65%
percentage of proliferating SOX9-positive cells (SOX9-positive, Ki67-positive) ([5]; FGF2 at S6, by S6d12, both Version A and Version B protocols, without FGF2 close to zero, FIG. 6B): 15%-20%
change in percentage of proliferating non-SOX9 cells (SOX9-negative, Ki67-positive) ([5]; FGF2 treatment at S6, FIG. 6C): small change
effect on SC-EC cells, as measured by expression of VMAT1, or positivity for NKX6.1 and negativity for ISL1 ([5]; FGF2 treatment at S6, S6d4, S6d8, S6d12, FIGS. 7A-7B): small effect
change in percentage of SC-α cells [5, 9]: increase
change in percentage of SC-β cells [5, 9]: increase
change in percentage of SC-δ cells [5, 9]: increase
percentage of NKX6.1-positive, ISL1-positive SC-β cells ([5]; Version A plus FGF2 100 ng/mL at S6 for the first 3 days, flow cytometry, without FGF2 18.5%): 36.9%
change in percentage of SC-β cell ([5]; Version A protocol, FGF2 100 ng/mL for the first 12 days at S6, by S6d8 and S6d12): relatively unchanged
change in SC-δ cell percentage [5, 10]: increased
change in percentage of SC-α cells [5, 10]: reduced
change in percentage of SC-β cells [5, 10]: reduced
change in SOX9-positive cells ([5]; addition of FGF2 at S6, both Version A and Version B protocols): significantly increased

CC[C@H](C)n1cc(C)c2c(C(=O)NCc3c(C)cc(C)[nH]c3=O)cc(-c3ccc(N4CCNCC4)nc3)cc21 [GSK126]
selectivity over EZH1 ([1]; EZH2 versus EZH1): 150 fold
